{"source": "patent US20030060663A1", "about": "“Novel therapeutic agents for macromolecular structures” (priority 1998, published 2003)", "origin": "cited, not measured here", "key": {"[1]": {"details": "animal models"}, "[2]": {"details": "clinical trials"}, "coxsackievirus A21": {"tested_on": "coxsackievirus A21", "details": "p.o. administration, patients challenged with coxsackievirus A21"}, "[3]": {"tested_on": "HRV (human rhinovirus)-16, 39, and 50", "details": "administered orally to patients infected with HRV-16, 39, and 50"}, "[4]": {"tested_on": "Microsporum, Epidermophyton and Trichophyton", "details": "various species of Microsporum"}, "fungal pathogens": {"tested_on": "fungal pathogens", "details": "on average; for MIC values, fold higher than amphotericin B: range of fungal pathogens"}, "HRV-9": {"tested_on": "HRV-9", "details": "against HRV-9"}, "mitotic microtubules": {"tested_on": "mitotic microtubules", "details": "intact tectal plates from mouse embryos; blockade of cells at metaphase"}, "axonal microtubules": {"tested_on": "axonal microtubules", "details": "intact tectal plates from mouse embryos"}, "yeasts": {"tested_on": "yeasts", "details": "relative to amphotericin B"}}, "note": "Read-outs that look alike come from different tables or passages of the source."}
{"compound": "COC(=O)[C@H]1[C@@H]2C[C@@H](O[C@@H]3O[C@H](C)[C@@H](O)[C@H](N)[C@@H]3O)/C=C/C=C/C=C/C=C/C=C/C=C/C=C/[C@H](C)[C@@H](O)[C@@H](C)[C@H](C)OC(=O)C[C@H](O)C[C@H](O)CC[C@@H](O)[C@H](O)C[C@H](O)C[C@](O)(C[C@@H]1O)O2", "note": "[Amphotericin B methyl ester]", "values": [{"measurement": "nephrotoxicity compared with amphotericin B", "setting": "[1]", "result": "less nephrotoxic"}, {"measurement": "nephrotoxicity compared with amphotericin B", "setting": "[2]", "result": "less nephrotoxic"}]}
{"compound": "Cc1cc(CCCCCOc2c(Cl)cc(C3N=CCO3)cc2Cl)on1", "note": "(centres unmarked) [Compound A]", "values": [{"measurement": "prophylactic effect in clinical trials", "setting": "coxsackievirus A21", "result": "prophylactic effect"}, {"measurement": "therapeutic effect", "setting": "[3]", "result": "did not demonstrate a therapeutic effect"}]}
{"compound": "COC1=CC(=O)C[C@@H](C)[C@]12Oc1c(Cl)c(OC)cc(OC)c1C2=O", "note": "[Griseofulvin]", "values": [{"measurement": "in vitro activity against fungi", "setting": "[4]", "result": "fungistatic"}]}
{"compound": "COC(=O)C1C(O)CC2(O)CC(O)CC(O)C(O)CCC(O)CC(O)CC(=O)OC(C)C(C)C(O)C(C)C=CC=CC=CC=CC=CC=CC=CC(OC3OC(C)C(O)C(NC(=O)C(N)CCCN)C3O)CC1O2", "note": "(centres unmarked) [N-ornithyl amphotericin B methyl ester]", "values": [{"measurement": "nephrotoxicity compared with amphotericin B", "setting": "[1]", "result": "less nephrotoxic"}]}
{"compound": "CC1C=CC=CC=CC=CC=CC=CC=CC(OC2OC(C)C(O)C(N)C2O)CC2OC(OCCO)(CC(O)CC(O)C(O)CCC(O)CC(O)CC(=O)OC(C)C(C)C1O)CC(O)C2C(=O)O", "note": "(stereo not drawn) [beta-hydroxyethoxy ketal]", "values": [{"measurement": "MIC values, fold higher than amphotericin B", "setting": "fungal pathogens", "result": 2, "unit": "fold"}]}
{"compound": "COc1ccc(N2CCN(c3cccc(C)c3)CC2)nn1", "note": "[compound C]", "values": [{"measurement": "prophylactic use", "setting": "HRV-9", "result": "worked prophylactically"}]}
{"compound": "COC12CC(O)CC(O)C(O)CCC(O)CC(O)CC(=O)OC(C)C(C)C(O)C(C)C=CC=CC=CC=CC=CC=CC=CC(OC3OC(C)C(O)C(N)C3O)CC(O1)C(C(=O)O)C(O)C2", "note": "(centres unmarked) [methoxy ketal]", "values": [{"measurement": "MIC values, fold higher than amphotericin B", "setting": "fungal pathogens", "result": 2, "unit": "fold"}]}
{"compound": "CCCOC12CC(O)CC(O)C(O)CCC(O)CC(O)CC(=O)OC(C)C(C)C(O)C(C)C=CC=CC=CC=CC=CC=CC=CC(OC3OC(C)C(O)C(N)C3O)CC(O1)C(C(=O)O)C(O)C2", "note": "(centres unmarked) [n-propyloxy ketal]", "values": [{"measurement": "fold less potent in vitro", "setting": "fungal pathogens", "result": 10, "unit": "fold"}]}
{"compound": "CC[C@]1(O)C[C@@H]2CN(CCc3c([nH]c4ccccc34)[C@@](C(=O)OC)(c3cc4c(cc3OC)N(C)[C@H]3[C@@](O)(C(=O)OC)[C@H](OC(C)=O)[C@]5(CC)C=CCN6CC[C@]43[C@@H]65)C2)C1", "note": "[vinblastine]", "values": [{"measurement": "concentration at which mitotic microtubule formation is inhibited", "setting": "mitotic microtubules", "result": 2, "unit": "mcM"}, {"measurement": "concentration producing depolymerization of axonal microtubules", "setting": "axonal microtubules", "result": 30, "unit": "mcM"}]}
{"compound": "CC[C@]1(O)C[C@H]2CN(CCc3c([nH]c4ccccc34)[C@@](C(=O)OC)(c3cc4c(cc3OC)N(C=O)[C@H]3[C@@](O)(C(=O)OC)[C@H](OC(C)=O)[C@]5(CC)C=CCN6CC[C@]43[C@@H]65)C2)C1", "note": "[vincristine, Vincristine]", "values": [{"measurement": "concentration at which mitotic microtubule formation is inhibited", "setting": "mitotic microtubules", "result": 2, "unit": "mcM"}, {"measurement": "concentration producing depolymerization of axonal microtubules", "setting": "axonal microtubules", "result": 5, "unit": "mcM"}]}
{"compound": "CCC1=C[C@@H]2CN(C1)Cc1c([nH]c3ccccc13)[C@@](C(=O)OC)(c1cc3c(cc1OC)N(C)[C@H]1[C@@](O)(C(=O)OC)[C@H](OC(C)=O)[C@]4(CC)C=CCN5CC[C@]31[C@@H]54)C2", "note": "[vinorelbine, 3′,4′-Didehydro-4′-deoxy-C′-norvincaleukoblastine]", "values": [{"measurement": "concentration at which mitotic microtubule formation is inhibited", "setting": "mitotic microtubules", "result": 2, "unit": "mcM"}, {"measurement": "concentration producing depolymerization of axonal microtubules", "setting": "axonal microtubules", "result": 40, "unit": "mcM"}]}
{"compound": "monovalent adduct of amphotericin B with N,N′-1,6-hexandiyl-bis(maleimide)", "values": [{"measurement": "MIC values against yeasts, fold higher than amphotericin B", "setting": "yeasts", "result": "more than 20 fold"}]}
